According to patent US20230139171A1 (SITA Information Networking Computing UK Limited, priority 2019, published 2023):

How the values were obtained:
Assay type in all cases: cell-based
human TLR7 = biological target: T1, human TLR7 (Homo sapiens, UniProt Q9NYK1); assay: TLR7 inhibition reporter assay (HEK-Blue cells, SEAP reporter, gardiquimod stimulation); conditions: HEK-Blue cells overexpressing human TLR7, SEAP reporter, gardiquimod 7.5 μM; read-out: TLR7 IC50
T1 construct: host or cells: HEK-Blue cells
T1 sequence (Q9NYK1 27-1049): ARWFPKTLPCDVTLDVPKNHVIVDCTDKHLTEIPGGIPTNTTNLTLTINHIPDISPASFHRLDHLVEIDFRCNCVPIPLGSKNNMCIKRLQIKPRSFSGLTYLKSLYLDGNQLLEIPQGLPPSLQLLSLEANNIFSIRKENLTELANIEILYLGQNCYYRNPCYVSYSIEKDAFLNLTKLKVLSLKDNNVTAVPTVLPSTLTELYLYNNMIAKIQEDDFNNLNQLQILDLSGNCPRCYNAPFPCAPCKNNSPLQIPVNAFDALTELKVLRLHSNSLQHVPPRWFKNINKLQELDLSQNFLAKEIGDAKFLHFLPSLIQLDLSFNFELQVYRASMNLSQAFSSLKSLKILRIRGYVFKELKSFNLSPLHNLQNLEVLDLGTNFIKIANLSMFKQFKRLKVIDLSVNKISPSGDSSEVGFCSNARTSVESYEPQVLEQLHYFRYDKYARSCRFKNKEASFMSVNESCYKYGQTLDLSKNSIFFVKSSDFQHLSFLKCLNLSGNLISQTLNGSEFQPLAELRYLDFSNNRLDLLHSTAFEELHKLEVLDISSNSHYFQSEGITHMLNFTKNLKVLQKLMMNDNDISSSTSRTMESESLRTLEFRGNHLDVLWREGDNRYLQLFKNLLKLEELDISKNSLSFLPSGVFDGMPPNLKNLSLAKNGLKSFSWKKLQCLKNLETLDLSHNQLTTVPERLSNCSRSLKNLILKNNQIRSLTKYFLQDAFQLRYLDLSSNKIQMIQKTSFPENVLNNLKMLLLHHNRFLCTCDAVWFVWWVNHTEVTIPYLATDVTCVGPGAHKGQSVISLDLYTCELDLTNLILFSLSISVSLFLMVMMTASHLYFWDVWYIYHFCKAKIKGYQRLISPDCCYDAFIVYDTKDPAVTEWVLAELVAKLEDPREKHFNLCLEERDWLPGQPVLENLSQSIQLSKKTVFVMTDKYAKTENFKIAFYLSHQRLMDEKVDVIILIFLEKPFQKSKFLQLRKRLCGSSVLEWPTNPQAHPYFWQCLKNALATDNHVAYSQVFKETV
Procedure, shortened: (§1)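 Dose–response from 0.05 nM to 50 μM was run in HEK-Blue human TLR7, TLR8 and TLR9 reporter cells. After 30 min at room temperature with compound, ligand was added (TLR7 gardiquimod 7.5 μM; TLR8 R848 15.9 μM; TLR9 ODN2006 5 nM) and SEAP measured next day, at 22 h.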

human TLR8 = biological target: T2, human TLR8 (Homo sapiens, UniProt Q9NR97); assay: TLR8 inhibition reporter assay (HEK-Blue cells, SEAP reporter, R848 stimulation); conditions: HEK-Blue cells overexpressing human TLR8, SEAP reporter, R848 15.9 μM; read-out: TLR8 IC50
T2 construct: host or cells: HEK-Blue cells
T2 sequence (Q9NR97 27-1041): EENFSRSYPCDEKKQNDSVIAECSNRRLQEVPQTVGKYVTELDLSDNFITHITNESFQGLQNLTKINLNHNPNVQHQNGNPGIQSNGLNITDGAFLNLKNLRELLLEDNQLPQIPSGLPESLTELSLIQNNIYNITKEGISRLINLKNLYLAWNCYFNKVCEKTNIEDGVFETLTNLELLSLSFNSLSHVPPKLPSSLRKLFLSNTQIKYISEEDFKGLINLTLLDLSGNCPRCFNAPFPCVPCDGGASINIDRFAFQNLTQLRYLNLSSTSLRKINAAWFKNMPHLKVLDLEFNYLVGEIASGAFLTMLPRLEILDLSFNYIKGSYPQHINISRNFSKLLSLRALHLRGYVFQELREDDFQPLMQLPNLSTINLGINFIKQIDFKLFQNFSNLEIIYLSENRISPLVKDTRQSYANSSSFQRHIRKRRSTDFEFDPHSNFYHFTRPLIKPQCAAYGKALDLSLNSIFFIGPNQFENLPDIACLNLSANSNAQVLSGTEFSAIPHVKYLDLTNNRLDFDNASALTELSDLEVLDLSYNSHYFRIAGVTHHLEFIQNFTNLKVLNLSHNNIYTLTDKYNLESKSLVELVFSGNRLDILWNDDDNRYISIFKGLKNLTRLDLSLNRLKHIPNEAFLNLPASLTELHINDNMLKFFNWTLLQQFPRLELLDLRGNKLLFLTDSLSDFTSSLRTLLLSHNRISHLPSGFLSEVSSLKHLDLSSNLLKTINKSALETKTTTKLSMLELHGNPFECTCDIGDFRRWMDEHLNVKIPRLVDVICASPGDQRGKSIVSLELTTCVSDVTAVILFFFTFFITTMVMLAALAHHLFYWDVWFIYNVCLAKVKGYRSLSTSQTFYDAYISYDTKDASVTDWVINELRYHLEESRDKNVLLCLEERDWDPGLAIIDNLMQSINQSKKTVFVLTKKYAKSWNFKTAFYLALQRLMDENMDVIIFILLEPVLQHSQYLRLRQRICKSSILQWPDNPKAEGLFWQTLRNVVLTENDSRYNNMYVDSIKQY
Procedure, shortened: as §1

human TLR9 = biological target: T3, human TLR9 (Homo sapiens, UniProt Q9NR96); assay: TLR9 inhibition reporter assay (HEK-Blue cells, SEAP reporter, ODN2006 stimulation); conditions: HEK-Blue cells overexpressing human TLR9, SEAP reporter, ODN2006 5 nM
T3 construct: host or cells: HEK-Blue cells
T3 sequence (Q9NR96 26-1032): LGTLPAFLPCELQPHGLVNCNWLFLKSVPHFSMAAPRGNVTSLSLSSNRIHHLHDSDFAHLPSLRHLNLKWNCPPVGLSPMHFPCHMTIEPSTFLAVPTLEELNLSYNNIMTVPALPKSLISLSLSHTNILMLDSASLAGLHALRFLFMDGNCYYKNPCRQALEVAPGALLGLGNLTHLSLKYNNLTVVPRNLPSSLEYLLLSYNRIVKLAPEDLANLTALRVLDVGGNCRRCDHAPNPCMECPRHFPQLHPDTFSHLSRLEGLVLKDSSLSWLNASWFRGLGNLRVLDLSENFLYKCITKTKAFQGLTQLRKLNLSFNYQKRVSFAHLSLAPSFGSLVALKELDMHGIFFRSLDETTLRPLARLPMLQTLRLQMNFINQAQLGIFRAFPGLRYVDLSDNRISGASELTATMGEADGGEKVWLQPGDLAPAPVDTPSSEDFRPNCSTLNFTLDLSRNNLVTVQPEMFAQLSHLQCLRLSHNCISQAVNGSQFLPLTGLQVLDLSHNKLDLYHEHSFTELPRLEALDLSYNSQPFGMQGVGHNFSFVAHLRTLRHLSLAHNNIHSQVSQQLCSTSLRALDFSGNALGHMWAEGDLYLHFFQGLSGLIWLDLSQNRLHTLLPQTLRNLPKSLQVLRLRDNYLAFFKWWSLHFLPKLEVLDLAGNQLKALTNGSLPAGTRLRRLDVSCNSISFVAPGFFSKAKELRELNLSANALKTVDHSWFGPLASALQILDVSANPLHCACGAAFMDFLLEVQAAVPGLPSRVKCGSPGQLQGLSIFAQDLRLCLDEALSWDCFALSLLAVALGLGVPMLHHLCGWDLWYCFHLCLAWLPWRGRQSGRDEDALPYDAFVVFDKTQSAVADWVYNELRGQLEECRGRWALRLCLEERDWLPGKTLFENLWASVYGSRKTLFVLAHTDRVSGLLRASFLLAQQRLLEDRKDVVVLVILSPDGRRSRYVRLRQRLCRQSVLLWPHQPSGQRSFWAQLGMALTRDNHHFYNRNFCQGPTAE
Procedure, shortened: as §1

SMILES	IC50 (human TLR7)	IC50 (human TLR8)	IC50 (human TLR9)
CCN1CCC(c2nc3c(C(C)C)c(-c4cn5ncnc5c(C)c4C)[nH]c3s2)CC1 [Example 50, 5-(7,8-dimethyl-[1,2,4]triazolo[1,5-a]pyridin-6-yl)-2-(1-ethylpiperidin-4-yl)-6-isopropyl-4H-pyrrolo[3,2-d]thiazole]	1.27 nM	2.74 nM	17300 nM
Cc1cc2ncnn2cc1-c1[nH]c2sc(C3CCC(N(C)C(C)C)CC3)nc2c1C(C)C (single isomer, unassigned) [Example 158, N-isopropyl-4-(6-isopropyl-5-(7-methyl-[1,2,4]triazolo[1,5-a]pyridin-6-yl)-4H-pyrrolo[3,2-d]thiazol-2-yl)-N-methylcyclohexan-1-amine]	8.95 nM	31 nM	14300 nM
Cc1cc(-c2[nH]c3sc(C4CCN(C(=O)CN(C)C)CC4)nc3c2C(C)C)cn2ncnc12 [Example 19, 2-(dimethylamino)-1-(4-(6-isopropyl-5-(8-methyl-[1,2,4]triazolo[1,5-a]pyridin-6-yl)-4H-pyrrolo[3,2-d]thiazol-2-yl)piperidin-1-yl)ethan-1-one]	1.4 nM	12 nM	5940 nM
Cc1c(-c2[nH]c3sc(C4CCN(CC5CC5)CC4)nc3c2C(C)C)cn2ncnc2c1C [Example 53, 2-(1-(cyclopropylmethyl)piperidin-4-yl)-5-(7,8-dimethyl-[1,2,4]triazolo[1,5-a]pyridin-6-yl)-6-isopropyl-4H-pyrrolo[3,2-d]thiazole]	0.94 nM	0.79 nM	5070 nM
CC(C)c1c(-c2ccc(C#N)c3ncccc23)[nH]c2sc(C3CCN(C4CCOCC4)CC3)nc12 [Example 38, 5-(6-isopropyl-2-(1-(tetrahydro-2H-pyran-4-yl)piperidin-4-yl)-4H-pyrrolo[3,2-d]thiazol-5-yl) quinoline-8-carbonitrile]	7.93 nM	4.43 nM	2280 nM
COc1cc(-c2[nH]c3sc(C4CCNCC4)nc3c2C(C)C)cn2ncnc12 [Example 1, 6-isopropyl-5-(8-methoxy-[1,2,4]triazolo[1,5-a]pyridin-6-yl)-2-(piperidin-4-yl)-4H-pyrrolo[3,2-d]thiazole]	2.01 nM	8.14 nM	760 nM

Results, then the compound that gave them:

IC50 (human TLR7)	IC50 (human TLR8)	IC50 (human TLR9)	SMILES
26.8 nM	22.9 nM	22000 nM	Cc1c(-c2[nH]c3sc(C4CCC(N5CC(O)C5)CC4)nc3c2C(C)C)cn(C)c(=O)c1C (single isomer, unassigned) [Example 264, 5-(2-(4-(3-hydroxyazetidin-1-yl)cyclohexyl)-6-isopropyl-4H-pyrrolo[3,2-d]thiazol-5-yl)-1,3,4-trimethylpyridin-2(1H)-one]
2.3 nM	0.59 nM	> 50000 nM	Cc1c(-c2[nH]c3sc(C4CCC(N5CC6(C5)CS(=O)(=O)C6)CC4)nc3c2C(C)C)cn2ncnc2c1C (single isomer, unassigned) [Example 233, 6-(4-(5-(7,8-dimethyl-[1,2,4]triazolo[1,5-a]pyridin-6-yl)-6-isopropyl-4H-pyrrolo[3,2-d]thiazol-2-yl)cyclohexyl)-2-thia-6-azaspiro[3.3]heptane 2,2-dioxide]
0.79 nM	0.58 nM	14300 nM	Cc1c(-c2[nH]c3sc(C4CCC(NCC(N)=O)CC4)nc3c2C(C)C)cn2ncnc2c1C (stereo not drawn) [Example 211, 2-((4-(5-(7,8-dimethyl-[1,2,4]triazolo[1,5-a]pyridin-6-yl)-6-isopropyl-4H-pyrrolo[3,2-d]thiazol-2-yl)cyclohexyl)amino)acetamide]
1.01 nM	0.84 nM	11400 nM	Cc1c(-c2[nH]c3sc(C4CCC(NC5COC5)CC4)nc3c2C(C)C)cn2ncnc2c1C (single isomer, unassigned) [Example 184, N-(4-(5-(7,8-dimethyl-[1,2,4]triazolo[1,5-a]pyridin-6-yl)-6-isopropyl-4H-pyrrolo[3,2-d]thiazol-2-yl)cyclohexyl)oxetan-3-amine]
6.96 nM	2.26 nM	6240 nM	Cc1c(-c2[nH]c3sc(N4CCN(C5CCN(C(C)C)CC5)C[C@H]4C)nc3c2C(C)C)cn2ncnc2c1C [Example 324]
13.5 nM	39.7 nM	38100 nM	CNC(=O)CN1C[C@H](C)N(c2nc3c(C(C)C)c(-c4cn5ncnc5c(C)c4C)[nH]c3s2)C[C@H]1C [Example 336, 2-((2R,5S)-4-(5-(7,8-dimethyl-[1,2,4]triazolo[1,5-a]pyridin-6-yl)-6-isopropyl-4H-pyrrolo[3,2-d]thiazol-2-yl)-2,5-dimethylpiperazin-1-yl)-N-methylacetamide]
2.3 nM	6 nM	15000 nM	Cc1c(-c2[nH]c3sc(C4CCC(NCC5(S(C)(=O)=O)CC5)CC4)nc3c2C(C)C)cn2ncnc2c1C (single isomer, unassigned) [Example 215, 4-(5-(7,8-dimethyl-[1,2,4]triazolo[1,5-a]pyridin-6-yl)-6-isopropyl-4H-pyrrolo[3,2-d]thiazol-2-yl)-N-((1-(methylsulfonyl)cyclopropyl)methyl) cyclohexan-1-amine]
